According to ChEMBL document CHEMBL1201861, “Genomics of Drug Sensitity in Cancer screening data, Wellcome Trust Sanger Institute”:
pIC50: −log10 of the molar value.

How the values were obtained:
Experiment in all cases: cells
KP-N-YS = type: functional, cell-based; details: Homo sapiens
Description: SANGER: Inhibition of human KP-N-YS cell growth in a cell viability assay.

LB1047-RCC = type: functional, cell-based, Homo sapiens; details: Homo sapiens, LB1047-RCC
Description: SANGER: Inhibition of human LB1047-RCC cell growth in a cell viability assay.

IST-SL1 = type: functional, cell-based, Homo sapiens; details: Homo sapiens, IST-SL1
Description: SANGER: Inhibition of human IST-SL1 cell growth in a cell viability assay.

RXF 393 = type: functional, cell-based; details: Homo sapiens
Description: SANGER: Inhibition of human RXF393 cell growth in a cell viability assay.

NOS-1 = type: functional, cell-based, Homo sapiens; details: Homo sapiens, NOS-1
Description: SANGER: Inhibition of human NOS-1 cell growth in a cell viability assay.

SH-4 = type: functional, cell-based, Homo sapiens; details: Homo sapiens, SH-4
Description: SANGER: Inhibition of human SH-4 cell growth in a cell viability assay.

HO-1-N-1 = type: functional, cell-based, Homo sapiens; details: Homo sapiens, HO-1-N-1
Description: SANGER: Inhibition of human HO-1-N-1 cell growth in a cell viability assay.

MOLT-16 = type: functional, cell-based; details: Homo sapiens
Description: SANGER: Inhibition of human MOLT-16 cell growth in a cell viability assay.

ES8 = type: functional, cell-based, Homo sapiens; details: Homo sapiens, ES8
Description: SANGER: Inhibition of human ES8 cell growth in a cell viability assay.

KE-37 = type: functional, cell-based; details: Homo sapiens
Description: SANGER: Inhibition of human KE-37 cell growth in a cell viability assay.

HCC70 = type: functional, cell-based, Homo sapiens; details: Homo sapiens, HCC70
Description: SANGER: Inhibition of human HCC70 cell growth in a cell viability assay.

ML-2 = type: functional, cell-based; details: Homo sapiens
Description: SANGER: Inhibition of human ML-2 cell growth in a cell viability assay.

TCC-SUP = type: functional, cell-based, Homo sapiens; details: Homo sapiens, TCC-SUP
Description: SANGER: Inhibition of human TCCSUP cell growth in a cell viability assay.

CTV-1 = type: functional, cell-based; details: Homo sapiens
Description: SANGER: Inhibition of human CTV-1 cell growth in a cell viability assay.

MFE-280 = type: functional, cell-based, Homo sapiens; details: Homo sapiens, MFE-280
Description: SANGER: Inhibition of human MFE-280 cell growth in a cell viability assay.

NCI-H226 = type: functional, cell-based, Homo sapiens; details: Homo sapiens, NCI-H226
Description: SANGER: Inhibition of human NCI-H226 cell growth in a cell viability assay.

CWR22R = type: functional, cell-based, Homo sapiens; details: Homo sapiens, 22Rv1
Description: SANGER: Inhibition of human 22RV1 cell growth in a cell viability assay.

IGROV-1 = type: functional, cell-based, Homo sapiens; details: Homo sapiens, IGROV-1
Description: SANGER: Inhibition of human IGROV-1 cell growth in a cell viability assay.

DMS-273 = type: functional, cell-based, Homo sapiens; details: Homo sapiens, DMS-273
Description: SANGER: Inhibition of human DMS-273 cell growth in a cell viability assay.

VA-ES-BJ = type: functional, cell-based, Homo sapiens; details: Homo sapiens, VA-ES-BJ
Description: SANGER: Inhibition of human VA-ES-BJ cell growth in a cell viability assay.

NOMO-1 = type: functional, cell-based; details: Homo sapiens
Description: SANGER: Inhibition of human NOMO-1 cell growth in a cell viability assay.

HH = type: functional, cell-based; details: Homo sapiens
Description: SANGER: Inhibition of human HH cell growth in a cell viability assay.

MZ1-PC = type: functional, cell-based, Homo sapiens; details: Homo sapiens, MZ1-PC
Description: SANGER: Inhibition of human MZ1-PC cell growth in a cell viability assay.

SKG-IIIa = type: functional, cell-based, Homo sapiens; details: Homo sapiens, SKG-IIIa
Description: SANGER: Inhibition of human SKG-IIIa cell growth in a cell viability assay.

MPP-89 = type: functional, cell-based, Homo sapiens; details: Homo sapiens, MPP-89
Description: SANGER: Inhibition of human MPP-89 cell growth in a cell viability assay.

MeWo = type: functional, cell-based, Homo sapiens; details: Homo sapiens, MeWo
Description: SANGER: Inhibition of human Mewo cell growth in a cell viability assay.

LB2518-MEL = type: functional, cell-based, Homo sapiens; details: Homo sapiens, LB2518-MEL
Description: SANGER: Inhibition of human LB2518-MEL cell growth in a cell viability assay.

HuP-T3 = type: functional, cell-based, Homo sapiens; details: Homo sapiens, HuP-T3
Description: SANGER: Inhibition of human HuP-T3 cell growth in a cell viability assay.

HC-1 = type: functional, cell-based; details: Homo sapiens
Description: SANGER: Inhibition of human HC-1 cell growth in a cell viability assay.

EW-13 = type: functional, cell-based; details: Homo sapiens
Description: SANGER: Inhibition of human EW-13 cell growth in a cell viability assay.

OCUB-M = type: functional, cell-based, Homo sapiens; details: Homo sapiens, OCUB-M
Description: SANGER: Inhibition of human OCUB-M cell growth in a cell viability assay.

8-MG-BA = type: functional, cell-based, Homo sapiens; details: Homo sapiens, 8-MG-BA
Description: SANGER: Inhibition of human 8-MG-BA cell growth in a cell viability assay.

UO-31 = type: functional, cell-based; details: Homo sapiens
Description: SANGER: Inhibition of human U031 cell growth in a cell viability assay.

MLMA = type: functional, cell-based, Homo sapiens; details: Homo sapiens, MLMA
Description: SANGER: Inhibition of human MLMA cell growth in a cell viability assay.

NCI-H292 = type: functional, cell-based, Homo sapiens; details: Homo sapiens, NCI-H292
Description: SANGER: Inhibition of human NCI-H292 cell growth in a cell viability assay.

MC116 = type: functional, cell-based; details: Homo sapiens
Description: SANGER: Inhibition of human MC116 cell growth in a cell viability assay.

WM-115 = type: functional, cell-based, Homo sapiens; details: Homo sapiens, WM-115
Description: SANGER: Inhibition of human WM-115 cell growth in a cell viability assay.

CHP-212 = type: functional, cell-based, Homo sapiens; details: Homo sapiens, CHP-212
Description: SANGER: Inhibition of human CHP-212 cell growth in a cell viability assay.

COR-L105 = type: functional, cell-based, Homo sapiens; details: Homo sapiens, COR-L105
Description: SANGER: Inhibition of human COR-L105 cell growth in a cell viability assay.

HCC38 = type: functional, cell-based, Homo sapiens; details: Homo sapiens, HCC38
Description: SANGER: Inhibition of human HCC38 cell growth in a cell viability assay.

KGN = type: functional, cell-based, Homo sapiens; details: Homo sapiens, KGN
Description: SANGER: Inhibition of human KGN cell growth in a cell viability assay.

KS-1 = type: functional, cell-based, Homo sapiens; details: Homo sapiens, KS-1
Description: SANGER: Inhibition of human KS-1 cell growth in a cell viability assay.

NCI-H510A = type: functional, cell-based; details: Homo sapiens
Description: SANGER: Inhibition of human NCI-H510A cell growth in a cell viability assay.

KARPAS-45 = type: functional, cell-based; details: Homo sapiens
Description: SANGER: Inhibition of human KARPAS-45 cell growth in a cell viability assay.

SiHa = type: functional, cell-based, Homo sapiens; details: Homo sapiens, SiHa
Description: SANGER: Inhibition of human SiHa cell growth in a cell viability assay.

SF-295 = type: functional, cell-based, Homo sapiens; details: Homo sapiens, SF-295; read-out: IC50
Description: SANGER: Inhibition of human SF295 cell growth in a cell viability assay.

OS-RC-2 = type: functional, cell-based, Homo sapiens; details: Homo sapiens, OS-RC-2
Description: SANGER: Inhibition of human OS-RC-2 cell growth in a cell viability assay.

U-118-MG = type: functional, cell-based, Homo sapiens; details: Homo sapiens, U-118-MG
Description: SANGER: Inhibition of human U-118-MG cell growth in a cell viability assay.

5637 = type: functional, cell-based, Homo sapiens; details: Homo sapiens
Description: SANGER: Inhibition of human 5637 cell growth in a cell viability assay.

KOSC-2 = type: functional, cell-based, Homo sapiens; details: Homo sapiens, KOSC-2
Description: SANGER: Inhibition of human KOSC-2 cell growth in a cell viability assay.

OVCAR-4 = type: functional, cell-based, Homo sapiens; details: Homo sapiens, OVCAR-4
Description: SANGER: Inhibition of human OVCAR-4 cell growth in a cell viability assay.

SNU-449 = type: functional, cell-based, Homo sapiens; details: Homo sapiens, SNU-449
Description: SANGER: Inhibition of human SNU-449 cell growth in a cell viability assay.

KU812 cell line = type: functional, cell-based; details: Homo sapiens
Description: SANGER: Inhibition of human KU812 cell growth in a cell viability assay.

## Cn1cc(C2=C(c3ccc(Cl)cc3Cl)C(=O)NC2=O)c2ccccc21 [SB-216763]
KP-N-YS
  pIC50: < 5.00
LB1047-RCC
  pIC50: < 5.00
IST-SL1
  pIC50: 5.04
RXF 393
  pIC50: < 5.00
NOS-1
  pIC50: < 5.00
SH-4
  pIC50: < 5.00
HO-1-N-1
  pIC50: < 5.00
MOLT-16
  pIC50: < 5.00
ES8
  pIC50: < 5.00
KE-37
  pIC50: < 5.00
HCC70
  pIC50: < 5.00
ML-2
  pIC50: < 5.00
TCC-SUP
  pIC50: < 5.00
CTV-1
  pIC50: < 5.00
MFE-280
  pIC50: < 5.00
NCI-H226
  pIC50: < 5.00
CWR22R
  pIC50: < 5.00
IGROV-1
  pIC50: < 5.00
DMS-273
  pIC50: < 5.00
VA-ES-BJ
  pIC50: < 5.00
NOMO-1
  pIC50: < 5.00
HH
  pIC50: < 5.00
MZ1-PC
  pIC50: < 5.00
SKG-IIIa
  pIC50: < 5.00
MPP-89
  pIC50: < 5.00
MeWo
  pIC50: < 5.00
LB2518-MEL
  pIC50: < 5.00
HuP-T3
  pIC50: < 5.00
HC-1
  pIC50: < 5.00
EW-13
  pIC50: < 5.00
OCUB-M
  pIC50: < 5.00
8-MG-BA
  pIC50: < 5.00
UO-31
  pIC50: < 5.00
MLMA
  pIC50: < 5.00
NCI-H292
  pIC50: < 5.00
MC116
  pIC50: < 5.00
WM-115
  pIC50: < 5.00
CHP-212
  pIC50: < 5.00
COR-L105
  pIC50: < 5.00
HCC38
  pIC50: < 5.00
KGN
  pIC50: < 5.00
KS-1
  pIC50: < 5.00
NCI-H510A
  pIC50: < 5.00
KARPAS-45
  pIC50: < 5.00
SiHa
  pIC50: < 5.00
SF-295
  pIC50: < 5.00
OS-RC-2
  pIC50: < 5.00
U-118-MG
  pIC50: < 5.00
5637
  pIC50: < 5.00
KOSC-2
  pIC50: < 5.00
OVCAR-4
  pIC50: < 5.00
SNU-449
  pIC50: < 5.00

## C=CCNC1=C2C[C@@H](C)C[C@H](OC)[C@H](O)[C@@H](C)/C=C(\C)[C@H](OC(N)=O)[C@@H](OC)/C=C\C=C(/C)C(=O)NC(=CC1=O)C2=O [TANESPIMYCIN]
KP-N-YS
  pIC50: 6.43
LB1047-RCC
  pIC50: 7.28
IST-SL1
  pIC50: < 6.00
RXF 393
  pIC50: 6.92
NOS-1
  pIC50: 6.01
SH-4
  pIC50: 6.94
HO-1-N-1
  pIC50: 7.40
MOLT-16
  pIC50: < 6.00
ES8
  pIC50: 6.51
KE-37
  pIC50: < 6.00
HCC70
  pIC50: 6.04
ML-2
  pIC50: 6.64
TCC-SUP
  pIC50: 7.22
CTV-1
  pIC50: 6.28
MFE-280
  pIC50: 6.67
NCI-H226
  pIC50: < 6.00
CWR22R
  pIC50: < 6.00
IGROV-1
  pIC50: 6.73
DMS-273
  pIC50: 6.47
VA-ES-BJ
  pIC50: 7.35
NOMO-1
  pIC50: < 6.00
HH
  pIC50: < 6.00
MZ1-PC
  pIC50: < 6.00
SKG-IIIa
  pIC50: 7.30
MPP-89
  pIC50: 6.85
MeWo
  pIC50: 6.83
LB2518-MEL
  pIC50: 6.59
HuP-T3
  pIC50: 6.40
EW-13
  pIC50: < 6.00
OCUB-M
  pIC50: < 6.00
8-MG-BA
  pIC50: 7.02
UO-31
  pIC50: 6.69
MLMA
  pIC50: < 6.00
NCI-H292
  pIC50: 6.88
MC116
  pIC50: < 6.00
WM-115
  pIC50: 7.42
CHP-212
  pIC50: 7.58
COR-L105
  pIC50: < 6.00
HCC38
  pIC50: 6.52
KGN
  pIC50: < 6.00
KS-1
  pIC50: 7.87
KARPAS-45
  pIC50: 6.42
SiHa
  pIC50: 6.98
SF-295
  pIC50: 7.19
OS-RC-2
  pIC50: 6.61
U-118-MG
  pIC50: 6.56
5637
  pIC50: 7.24
KOSC-2
  pIC50: 6.75
KU812 cell line
  pIC50: 6.47
OVCAR-4
  pIC50: < 6.00
SNU-449
  pIC50: < 6.00
